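Briefly, cells in 96-well plates were exposed to five compound concentrations for 48 h, and endpoints were estimated by linear interpolation. TGI marks complete inhibition of growth.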
Assays:
Assay in all cases: NCI tumour cell line growth inhibition, 48 h
A498 renal = test system: A498 renal
SNB-19 CNS = test system: SNB-19 CNS
T-47D breast = test system: T-47D breast
SK-MEL-28 melanoma = test system: SK-MEL-28 melanoma
OVCAR-4 ovarian = test system: OVCAR-4 ovarian
MDA-N = test system: MDA-N
HOP-62 NSCLC = test system: HOP-62 NSCLC
HCT-15 colon = test system: HCT-15 colon
ACHN renal = test system: ACHN renal
SK-MEL-5 melanoma = test system: SK-MEL-5 melanoma
UACC-62 melanoma = test system: UACC-62 melanoma
SW-620 colon = test system: SW-620 colon
BT-549 breast = test system: BT-549 breast
SF-539 CNS = test system: SF-539 CNS
MALME-3M melanoma = test system: MALME-3M melanoma
NCI-H226 lung = test system: NCI-H226 lung

| Structure (SMILES) | TGI (A498 renal) [µM] | TGI (SNB-19 CNS) [µM] | TGI (T-47D breast) [µM] | TGI (SK-MEL-28 melanoma) [µM] | TGI (OVCAR-4 ovarian) [µM] | TGI (MDA-N) [µM] | TGI (HOP-62 NSCLC) [µM] | TGI (HCT-15 colon) [µM] | TGI (ACHN renal) [µM] | TGI (SK-MEL-5 melanoma) [µM] | TGI (UACC-62 melanoma) [µM] | TGI (SW-620 colon) [µM] | TGI (BT-549 breast) [µM] | TGI (SF-539 CNS) [µM] | TGI (MALME-3M melanoma) [µM] | TGI (NCI-H226 lung) [µM] |
| --- | --- | --- | --- | --- | --- | --- | --- | --- | --- | --- | --- | --- | --- | --- | --- | --- |
| CN1C(=O)C(CC=O)(C(C)(C)C)c2ccccc21 (centres undefined) | > 100 | > 100 | > 100 | > 100 | > 100 | > 100 | > 100 | > 100 | > 100 | > 100 | > 100 | > 100 |  |  |  |  |
| CC(/C=N\NC(=S)N1CCCCC1)=N/NC(=S)N1CCCCC1 | 3.59 | 35.7 |  | 18.1 | 15.8 | 12.1 | 11 | 19.5 | 7.16 | 3.86 | 5.94 | 14.7 | 13.4 | > 100 | 14.9 | 2.6 |
| O=C(O)c1cccnc1 |  | > 100 | > 100 | > 100 | > 100 | > 100 | > 100 | > 100 | > 100 | > 100 |  | > 100 |  | > 100 | > 100 | > 100 |
| CN(C)/C=N/n1c2ccccc2c2ccccc21 | > 100 | > 100 | > 100 | > 100 | > 100 | > 100 | > 100 | > 100 | > 100 | > 100 | > 100 | > 100 |  | > 100 | > 100 | > 100 |
| COc1cc2c(cc1O)C1C(O)C(O)C=C3CCN(C2)C31 (centres undefined) |  | 10.1 |  | 13.9 | 4.84 |  | 10.9 | 25.2 | 7.87 | 2.95 | 3.97 | 12.6 |  | 4.68 | 3.86 | 7.07 |
| COc1ccc(C(OC(C)=O)C2C(=C(C#N)C#N)c3ccccc3C2=C(C#N)C#N)cc1 (centres undefined) | 58.6 |  | > 100 | > 100 | > 100 | > 100 | 62.6 | > 100 | > 100 | > 100 |  | > 100 |  | 49.7 |  | > 100 |
| COc1ccc(-c2c(C#N)c(O)n(NS(=O)(=O)c3ccc(C)cc3)c(=O)c2C#N)cc1 | > 100 | > 100 |  | > 100 | > 100 | > 100 | > 100 | > 100 | > 100 | > 100 | > 100 | > 100 | > 100 | > 100 | > 100 | > 100 |
| O=C(NS(=O)(=O)OCC(Cl)(Cl)Cl)SCCC(F)(F)C(F)(F)C(F)(F)C(F)(F)C(F)(F)C(F)(F)F | 61.9 | 36.2 | 98.4 | 55.7 | 31.8 |  | 72.4 | 47.4 | > 100 |  | 40.6 | 38.3 | > 100 | 34.5 | 37.7 | 70.7 |
| CC1(C)OC2C(O)CN3CCS[C@H]3C2O1 (some centres undefined) | > 100 | > 100 | > 100 | > 100 | > 100 |  | > 100 | > 100 | > 100 | > 100 | > 100 | > 100 | > 100 |  | > 100 | > 100 |
| CC(CCC#N)(CCC#N)C(=O)CC(O)(C(F)(F)F)C(F)(F)F | 40 | 53 | 16.2 | 27.2 | 8.01 | 4.88 | 38.7 | 10.6 | 20.2 | 28.5 | 19.8 | 6.9 |  | 8.75 | 12 | 45.3 |
| C[C@@H]1CCC2[C@@H](C)[C@@H](OCCO[C@H]3OC4O[C@@]5(C)CCC6[C@H](C)CCC([C@H]3C)[C@@]46OO5)OC3O[C@@]4(C)CCC1[C@]32OO4 (some centres undefined) | > 77.1 | > 100 | > 100 | > 100 | > 100 | > 100 | > 100 | > 100 | > 100 | > 39.8 | > 100 | > 100 |  | > 100 | > 100 | > 100 |
| COc1ccc(C(O)c2nccn2C)c(OC)c1 (centres undefined) |  | > 100 |  | > 100 | > 100 | > 100 | > 100 | > 100 | > 100 | > 100 | > 100 | > 100 | > 100 | > 100 | > 100 | > 100 |
| CC[C@]1(Cc2ccc(OC)c(OC)c2)[C@@H]2C[C@@H](C3OCCO3)ON2O[C@H](OC2CCCC2(c2ccccc2)c2ccccc2)[C@@H]1OC(C)=O (some centres undefined) |  | 36.9 | 50.3 | 47.3 |  | > 100 | 41.5 | 30.3 | 33.5 | 37.7 | > 100 | > 100 | 55.9 | > 100 |  | 36.5 |
| CC(C)(C)c1cc(C(=O)/C=C/C=C/c2ccccc2)cc(C(C)(C)C)c1O | > 80.7 | 77.8 | > 100 | > 100 | > 100 |  | > 100 | > 67.1 | > 100 | 37.2 | > 71.4 | 41.4 | 57.2 | 33.6 | > 100 | 77.2 |
| CC#C[P+](c1ccccc1)(c1ccccc1)c1ccccc1 | > 100 | 15 |  | 25 | 20.1 |  | 17.4 | 35.8 | 21.8 | 11.9 | 14.8 |  |  | 10.1 | 22.4 | 14.2 |
| O=C1/C(=C/c2ccccc2)NC(=S)N1CN1CCOCC1 | > 100 | > 100 |  | > 100 | > 100 | > 100 | > 100 | > 100 | > 100 | > 100 | > 100 | > 100 |  |  | > 100 | > 100 |
